Source: the supplement of paper PMC10307832

Columns and labels:
Test in all cases: relative viability (nuclei count vs DMSO), 5 days (fraction); higher = more cells survive
NCI-H358 = tested on: NCI-H358
Outline: (§1)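 Lung cancer cell lines were pin-tool dosed in 1536-well plates on the day after seeding, with either a lone drug or a fixed anchor-drug dose plus five library-drug doses (not always all listed) in √10 steps. Nuclei were counted on 4× images after 5 days. Relative viability is the ratio of treated-well to vehicle-well nuclei counts, with each value a median of duplicate plates.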

LC-2-ad = tested on: LC-2-ad
Outline: as §1

NCI-H650 = tested on: NCI-H650
Outline: as §1

LXF-289 = tested on: LXF-289
Outline: as §1

NCI-H838 = tested on: NCI-H838
Outline: as §1

SK-MES-1 = tested on: SK-MES-1
Outline: as §1

HCC-78 = tested on: HCC-78
Outline: as §1

BEN = tested on: BEN
Outline: as §1

NCI-H1944 = tested on: NCI-H1944
Outline: as §1

NCI-H2342 = tested on: NCI-H2342
Outline: as §1

LK-2 = tested on: LK-2
Outline: as §1

NCI-H661 = tested on: NCI-H661
Outline: as §1

ChaGo-K-1 = tested on: ChaGo-K-1
Outline: as §1

LU99A = tested on: LU99A
Outline: as §1

NCI-H2087 = tested on: NCI-H2087
Outline: as §1

NCI-H1666 = tested on: NCI-H1666
Outline: as §1

NCI-H1355 = tested on: NCI-H1355
Outline: as §1

NCI-H1975 = tested on: NCI-H1975
Outline: as §1

NCI-H1651 = tested on: NCI-H1651
Outline: as §1

PC-3 [JPC-3] = tested on: PC-3 [JPC-3]
Outline: as §1

**Q.** CC(=O)O[C@@]12CO[C@@H]1C[C@H](O)[C@@]1(C)C(=O)[C@H](O)C3=C(C)[C@@H](OC(=O)[C@H](O)[C@@H](NC(=O)OC(C)(C)C)c4ccccc4)C[C@@](O)([C@@H](OC(=O)c4ccccc4)[C@H]21)C3(C)C [Docetaxel] + CC(=O)c1c(C)c2cnc(Nc3ccc(N4CCNCC4)cn3)nc2n(C2CCCC2)c1=O [Palbociclib] (partner 0.5 µM) was tested. Which relative viability (NCI-H358; first compound 0.0002 µM) did it give?
**A.** 0.16

**Q.** And the relative viability (NCI-H358; first compound 0.000632 µM)?
**A.** 0.173

**Q.** What about the relative viability (NCI-H358; first compound 0.002 µM) of the same compound?
**A.** 0.142

**Q.** What about the relative viability (NCI-H358; first compound 0.006325 µM) of the same compound?
**A.** 0.126

**Q.** And the relative viability (NCI-H358; first compound 0.02 µM)?
**A.** 0.111

**Q.** And the relative viability (LC-2-ad; first compound 0.0002 µM)?
**A.** 0.438

**Q.** What about the relative viability (LC-2-ad; first compound 0.000632 µM) of the same compound?
**A.** 0.448

**Q.** What about the relative viability (LC-2-ad; first compound 0.002 µM) of the same compound?
**A.** 0.334

**Q.** What about the relative viability (LC-2-ad; first compound 0.006325 µM) of the same compound?
**A.** 0.284

**Q.** What about the relative viability (LC-2-ad; first compound 0.02 µM) of the same compound?
**A.** 0.233

**Q.** And the relative viability (NCI-H650; first compound 0.0002 µM)?
**A.** 0.34

**Q.** And the relative viability (NCI-H650; first compound 0.000632 µM)?
**A.** 0.305

**Q.** And the relative viability (NCI-H650; first compound 0.002 µM)?
**A.** 0.222

**Q.** And the relative viability (NCI-H650; first compound 0.006325 µM)?
**A.** 0.211

**Q.** What about the relative viability (NCI-H650; first compound 0.02 µM) of the same compound?
**A.** 0.193

**Q.** What about the relative viability (LXF-289; first compound 0.0002 µM) of the same compound?
**A.** 0.578

**Q.** And the relative viability (LXF-289; first compound 0.000632 µM)?
**A.** 0.569

**Q.** What about the relative viability (LXF-289; first compound 0.002 µM) of the same compound?
**A.** 0.337

**Q.** What about the relative viability (LXF-289; first compound 0.006325 µM) of the same compound?
**A.** 0.222

**Q.** And the relative viability (LXF-289; first compound 0.02 µM)?
**A.** 0.131

**Q.** What about the relative viability (NCI-H838; first compound 0.0002 µM) of the same compound?
**A.** 0.223

**Q.** What about the relative viability (NCI-H838; first compound 0.000632 µM) of the same compound?
**A.** 0.251

**Q.** And the relative viability (NCI-H838; first compound 0.002 µM)?
**A.** 0.209

**Q.** What about the relative viability (NCI-H838; first compound 0.006325 µM) of the same compound?
**A.** 0.176

**Q.** And the relative viability (NCI-H838; first compound 0.02 µM)?
**A.** 0.133

**Q.** What about the relative viability (SK-MES-1; first compound 0.0002 µM) of the same compound?
**A.** 0.401

**Q.** And the relative viability (SK-MES-1; first compound 0.000632 µM)?
**A.** 0.444

**Q.** And the relative viability (SK-MES-1; first compound 0.002 µM)?
**A.** 0.382

**Q.** What about the relative viability (SK-MES-1; first compound 0.006325 µM) of the same compound?
**A.** 0.303

**Q.** What about the relative viability (SK-MES-1; first compound 0.02 µM) of the same compound?
**A.** 0.176

**Q.** And the relative viability (HCC-78; first compound 0.0002 µM)?
**A.** 0.388

**Q.** And the relative viability (HCC-78; first compound 0.000632 µM)?
**A.** 0.481

**Q.** What about the relative viability (HCC-78; first compound 0.002 µM) of the same compound?
**A.** 0.435

**Q.** What about the relative viability (HCC-78; first compound 0.006325 µM) of the same compound?
**A.** 0.457

**Q.** And the relative viability (HCC-78; first compound 0.02 µM)?
**A.** 0.4

**Q.** What about the relative viability (BEN; first compound 0.0002 µM) of the same compound?
**A.** 0.457

**Q.** And the relative viability (BEN; first compound 0.000632 µM)?
**A.** 0.478

**Q.** And the relative viability (BEN; first compound 0.002 µM)?
**A.** 0.39

**Q.** And the relative viability (BEN; first compound 0.006325 µM)?
**A.** 0.376

**Q.** What about the relative viability (BEN; first compound 0.02 µM) of the same compound?
**A.** 0.343

**Q.** What about the relative viability (NCI-H1944; first compound 0.0002 µM) of the same compound?
**A.** 0.359

**Q.** And the relative viability (NCI-H1944; first compound 0.000632 µM)?
**A.** 0.268

**Q.** What about the relative viability (NCI-H1944; first compound 0.002 µM) of the same compound?
**A.** 0.314

**Q.** What about the relative viability (NCI-H1944; first compound 0.006325 µM) of the same compound?
**A.** 0.22

**Q.** And the relative viability (NCI-H1944; first compound 0.02 µM)?
**A.** 0.14

**Q.** And the relative viability (NCI-H2342; first compound 0.0002 µM)?
**A.** 0.683

**Q.** And the relative viability (NCI-H2342; first compound 0.000632 µM)?
**A.** 0.558

**Q.** What about the relative viability (NCI-H2342; first compound 0.002 µM) of the same compound?
**A.** 0.486

**Q.** And the relative viability (NCI-H2342; first compound 0.006325 µM)?
**A.** 0.388

**Q.** And the relative viability (NCI-H2342; first compound 0.02 µM)?
**A.** 0.394

**Q.** And the relative viability (LK-2; first compound 0.0002 µM)?
**A.** 0.507

**Q.** And the relative viability (LK-2; first compound 0.000632 µM)?
**A.** 0.411

**Q.** And the relative viability (LK-2; first compound 0.002 µM)?
**A.** 0.18

**Q.** What about the relative viability (LK-2; first compound 0.006325 µM) of the same compound?
**A.** 0.108

**Q.** What about the relative viability (LK-2; first compound 0.02 µM) of the same compound?
**A.** 0.0873

**Q.** And the relative viability (NCI-H661; first compound 0.0002 µM)?
**A.** 0.42

**Q.** And the relative viability (NCI-H661; first compound 0.000632 µM)?
**A.** 0.448

**Q.** And the relative viability (NCI-H661; first compound 0.002 µM)?
**A.** 0.472

**Q.** And the relative viability (NCI-H661; first compound 0.006325 µM)?
**A.** 0.377

**Q.** What about the relative viability (NCI-H661; first compound 0.02 µM) of the same compound?
**A.** 0.359

**Q.** And the relative viability (ChaGo-K-1; first compound 0.0002 µM)?
**A.** 0.883

**Q.** What about the relative viability (ChaGo-K-1; first compound 0.000632 µM) of the same compound?
**A.** 0.677

**Q.** What about the relative viability (ChaGo-K-1; first compound 0.002 µM) of the same compound?
**A.** 0.418

**Q.** And the relative viability (ChaGo-K-1; first compound 0.006325 µM)?
**A.** 0.313

**Q.** What about the relative viability (LU99A; first compound 0.0002 µM) of the same compound?
**A.** 0.367

**Q.** And the relative viability (LU99A; first compound 0.000632 µM)?
**A.** 0.36

**Q.** And the relative viability (LU99A; first compound 0.002 µM)?
**A.** 0.265

**Q.** What about the relative viability (LU99A; first compound 0.006325 µM) of the same compound?
**A.** 0.245

**Q.** And the relative viability (LU99A; first compound 0.02 µM)?
**A.** 0.159

**Q.** And the relative viability (NCI-H2087; first compound 0.0002 µM)?
**A.** 0.218

**Q.** What about the relative viability (NCI-H2087; first compound 0.000632 µM) of the same compound?
**A.** 0.179

**Q.** And the relative viability (NCI-H2087; first compound 0.002 µM)?
**A.** 0.135

**Q.** What about the relative viability (NCI-H2087; first compound 0.006325 µM) of the same compound?
**A.** 0.144

**Q.** What about the relative viability (NCI-H2087; first compound 0.02 µM) of the same compound?
**A.** 0.102

**Q.** What about the relative viability (NCI-H1666; first compound 0.0002 µM) of the same compound?
**A.** 0.628

**Q.** What about the relative viability (NCI-H1666; first compound 0.000632 µM) of the same compound?
**A.** 0.666

**Q.** And the relative viability (NCI-H1666; first compound 0.002 µM)?
**A.** 0.795

**Q.** What about the relative viability (NCI-H1666; first compound 0.006325 µM) of the same compound?
**A.** 0.712

**Q.** What about the relative viability (NCI-H1666; first compound 0.02 µM) of the same compound?
**A.** 0.581

**Q.** What about the relative viability (NCI-H1355; first compound 0.0002 µM) of the same compound?
**A.** 0.374

**Q.** What about the relative viability (NCI-H1355; first compound 0.000632 µM) of the same compound?
**A.** 0.402

**Q.** And the relative viability (NCI-H1355; first compound 0.002 µM)?
**A.** 0.29

**Q.** And the relative viability (NCI-H1355; first compound 0.02 µM)?
**A.** 0.176

**Q.** What about the relative viability (NCI-H1975; first compound 0.0002 µM) of the same compound?
**A.** 0.568

**Q.** And the relative viability (NCI-H1975; first compound 0.000632 µM)?
**A.** 0.354

**Q.** And the relative viability (NCI-H1975; first compound 0.002 µM)?
**A.** 0.224

**Q.** What about the relative viability (NCI-H1975; first compound 0.006325 µM) of the same compound?
**A.** 0.215

**Q.** And the relative viability (NCI-H1975; first compound 0.02 µM)?
**A.** 0.107

**Q.** And the relative viability (NCI-H1651; first compound 0.0002 µM)?
**A.** 0.478

**Q.** And the relative viability (NCI-H1651; first compound 0.000632 µM)?
**A.** 0.543

**Q.** What about the relative viability (NCI-H1651; first compound 0.002 µM) of the same compound?
**A.** 0.373

**Q.** And the relative viability (NCI-H1651; first compound 0.006325 µM)?
**A.** 0.212

**Q.** And the relative viability (PC-3 [JPC-3]; first compound 0.0002 µM)?
**A.** 0.55

**Q.** And the relative viability (PC-3 [JPC-3]; first compound 0.000632 µM)?
**A.** 0.559

**Q.** And the relative viability (PC-3 [JPC-3]; first compound 0.002 µM)?
**A.** 0.573

**Q.** And the relative viability (PC-3 [JPC-3]; first compound 0.006325 µM)?
**A.** 0.469

**Q.** What about the relative viability (PC-3 [JPC-3]; first compound 0.02 µM) of the same compound?
**A.** 0.422
